In patent US20150141460A1, “Anti-inflammatory Compositions” (Cambridge Enterprise Limited, priority 2007, published 2015):

Test system: SDF-1α induced migration of THP-1 cells
Test: ChemoTx transwell migration assay, SDF-1α induced migration of THP-1 cells
Assay type: cell-based
Conditions: Homo sapiens; THP-1 cell line; maximal dose of chemoattractant; read-out: ED50 SDF-1α induced migration
Method: In principle, this assay consists of two chambers separated by a porous membrane. The chemoattractant is placed in the lower compartment and the cells are placed in the upper compartment. After incubation for a period at 37° C. the cells move towards the chemoattractant, and the number of cells in the lower compartment is proportional to the chemoattractant activity (relative to a series of controls).
Next, the chemoattractant solution to be placed in the lower compartment is prepared. For example, MCP-1 is diluted in GBSS+BSA to give a final concentration of 25 ng/ml. This is divided into two pots, as for the cell suspension. To one pot, the test compound is added to the same final concentration as was added to the cell suspension, while to the other pot an equal volume of GBSS+BSA plus vehicle as appropriate (e.g., not more than 1% DMSO) is added. Alternatively, other chemokines may be used (SDF-1α at 7.5 ng/ml; RANTES at 50 ng/ml; IL-8 at 10 ng/ml using neutrophils as the target cell population). […]
The impact of the test substance is calculated by comparing the chemoattractant-induced migration which occurred in the presence or absence of various concentrations of the test substance. Typically, the inhibition of migration is expressed as a percentage of the total chemoattractant-induced migration which was blocked by the presence of the compound. […]

SMILES: CC(C)(C)C(=O)N[C@H]1CCCNC1=O [Compound (I′), (S)-3-(2′,2′-dimethylpropanoylamino)-tetrahydropyridin-2-one]
- EC50: 0.05 nM
